From PubChem BioAssay (NCI)
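Protocol summary: plate cells (96-well), add compound at 5 concentrations, incubate 48 h, interpolate endpoints linearly. Here, GI50 denotes the concentration required for 50% inhibition of growth. TGI: total growth inhibition.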

How the values were obtained:
Assay in all cases: NCI-60 cell line screen, 48 h; in the data active = GI50 below about 0.43 µM; inactive = the rest
K-562 leukemia = test system: K-562 leukemia
NCI-H522 lung = test system: NCI-H522 lung
BT-549 breast = test system: BT-549 breast
HL-60(TB) leukemia = test system: HL-60(TB) leukemia
SW-620 colon = test system: SW-620 colon
HCC-2998 colon = test system: HCC-2998 colon
TK-10 renal = test system: TK-10 renal
ACHN renal = test system: ACHN renal
SN12C renal = test system: SN12C renal
MOLT-4 leukemia = test system: MOLT-4 leukemia
786-0 renal = test system: 786-0 renal
DU-145 prostate = test system: DU-145 prostate
SF-539 CNS = test system: SF-539 CNS
OVCAR-8 ovarian = test system: OVCAR-8 ovarian
MDA-MB-231 breast = test system: MDA-MB-231 breast
CCRF-CEM leukemia = test system: CCRF-CEM leukemia
IGROV1 ovarian = test system: IGROV1 ovarian
OVCAR-4 ovarian = test system: OVCAR-4 ovarian
U251 CNS = test system: U251 CNS
RPMI-8226 leukemia = test system: RPMI-8226 leukemia
UO-31 renal = test system: UO-31 renal
NCI-H23 lung = test system: NCI-H23 lung
KM12 colon = test system: KM12 colon
NCI/ADR-RES ovarian = test system: NCI/ADR-RES ovarian
SNB-19 CNS = test system: SNB-19 CNS
HT29 colon = test system: HT29 colon
HOP-92 NSCLC = test system: HOP-92 NSCLC
COLO 205 colon = test system: COLO 205 colon
HCT-15 colon = test system: HCT-15 colon
RXF 393 renal = test system: RXF 393 renal
SK-MEL-2 melanoma = test system: SK-MEL-2 melanoma
MCF7 breast = test system: MCF7 breast
SNB-75 CNS = test system: SNB-75 CNS
SF-268 CNS = test system: SF-268 CNS
SK-OV-3 ovarian = test system: SK-OV-3 ovarian
HCT-116 colon = test system: HCT-116 colon
UACC-62 melanoma = test system: UACC-62 melanoma
CAKI-1 renal = test system: CAKI-1 renal
UACC-257 melanoma = test system: UACC-257 melanoma
OVCAR-5 ovarian = test system: OVCAR-5 ovarian
SK-MEL-28 melanoma = test system: SK-MEL-28 melanoma
SK-MEL-5 melanoma = test system: SK-MEL-5 melanoma
SF-295 CNS = test system: SF-295 CNS
M14 melanoma = test system: M14 melanoma
A498 renal = test system: A498 renal
A549 NSCLC = test system: A549 NSCLC
PC-3 prostate = test system: PC-3 prostate
HS 578T breast = test system: HS 578T breast
NCI-H226 lung = test system: NCI-H226 lung
HOP-62 NSCLC = test system: HOP-62 NSCLC
MDA-MB-435 = test system: MDA-MB-435
NCI-H460 lung = test system: NCI-H460 lung
T-47D breast = test system: T-47D breast
SR leukemia = test system: SR leukemia
MALME-3M melanoma = test system: MALME-3M melanoma
LOX IMVI melanoma = test system: LOX IMVI melanoma

O=C(Nc1ccc(OS(=O)(=O)c2ccccc2)cc1)C12CC3CC(CC(C3)C1)C2
active: GI50 (HT29 colon) 0.403 µM
3.69 µM: TGI (HT29 colon)
inactive: GI50 (K-562 leukemia) 0.576 µM | GI50 (NCI-H522 lung) 4.36 µM | GI50 (BT-549 breast) 3.24 µM | GI50 (HL-60(TB) leukemia) 2.68 µM | GI50 (SW-620 colon) 1.97 µM | GI50 (HCC-2998 colon) 5.48 µM | GI50 (TK-10 renal) > 100 µM | GI50 (ACHN renal) > 100 µM | GI50 (SN12C renal) > 100 µM | GI50 (MOLT-4 leukemia) 5.05 µM | GI50 (786-0 renal) 3.8 µM | GI50 (DU-145 prostate) > 100 µM | GI50 (SF-539 CNS) 0.965 µM | GI50 (OVCAR-8 ovarian) > 100 µM | GI50 (MDA-MB-231 breast) 3.79 µM | GI50 (CCRF-CEM leukemia) 3.73 µM | GI50 (IGROV1 ovarian) > 100 µM | GI50 (OVCAR-4 ovarian) 8.38 µM | GI50 (U251 CNS) 4.81 µM | GI50 (RPMI-8226 leukemia) 2.15 µM | GI50 (UO-31 renal) 18.7 µM | GI50 (NCI-H23 lung) 6.68 µM | GI50 (KM12 colon) 2.1 µM | GI50 (NCI/ADR-RES ovarian) 5.75 µM | GI50 (SNB-19 CNS) > 100 µM | GI50 (HOP-92 NSCLC) 1.87 µM | GI50 (COLO 205 colon) 0.873 µM | GI50 (HCT-15 colon) 0.997 µM | GI50 (RXF 393 renal) 5.12 µM | GI50 (SK-MEL-2 melanoma) > 100 µM | GI50 (MCF7 breast) 3.26 µM | GI50 (SNB-75 CNS) 7.16 µM | GI50 (SF-268 CNS) > 100 µM | GI50 (SK-OV-3 ovarian) > 100 µM | GI50 (HCT-116 colon) 2.5 µM | GI50 (UACC-62 melanoma) 6.47 µM | GI50 (CAKI-1 renal) 7.08 µM | GI50 (UACC-257 melanoma) 13.5 µM | GI50 (OVCAR-5 ovarian) > 100 µM | GI50 (SK-MEL-28 melanoma) > 100 µM | GI50 (SK-MEL-5 melanoma) 3.12 µM | GI50 (SF-295 CNS) 8.27 µM | GI50 (M14 melanoma) 7.2 µM | GI50 (A498 renal) 2.04 µM | GI50 (A549 NSCLC) 6.9 µM | GI50 (PC-3 prostate) 2.9 µM | GI50 (HS 578T breast) 7.29 µM | GI50 (NCI-H226 lung) 27.7 µM | GI50 (HOP-62 NSCLC) > 100 µM | GI50 (MDA-MB-435) > 100 µM | GI50 (NCI-H460 lung) 6.1 µM | GI50 (T-47D breast) 3.57 µM | GI50 (SR leukemia) 3.6 µM | GI50 (MALME-3M melanoma) > 100 µM | GI50 (LOX IMVI melanoma) 4.38 µM
> 100 µM: TGI (K-562 leukemia) | TGI (NCI-H522 lung) | TGI (BT-549 breast) | TGI (HL-60(TB) leukemia) | TGI (SW-620 colon) | TGI (HCC-2998 colon) | TGI (TK-10 renal) | TGI (ACHN renal) | TGI (SN12C renal) | TGI (MOLT-4 leukemia) | TGI (786-0 renal) | TGI (DU-145 prostate) | TGI (SF-539 CNS) | TGI (OVCAR-8 ovarian) | TGI (MDA-MB-231 breast) | TGI (CCRF-CEM leukemia) | TGI (IGROV1 ovarian) | TGI (OVCAR-4 ovarian) | TGI (U251 CNS) | TGI (RPMI-8226 leukemia) | TGI (UO-31 renal) | TGI (NCI-H23 lung) | TGI (KM12 colon) | TGI (NCI/ADR-RES ovarian) | TGI (SNB-19 CNS) | TGI (HOP-92 NSCLC) | TGI (COLO 205 colon) | TGI (HCT-15 colon) | TGI (RXF 393 renal) | TGI (SK-MEL-2 melanoma) | TGI (MCF7 breast) | TGI (SNB-75 CNS) | TGI (SF-268 CNS) | TGI (SK-OV-3 ovarian) | TGI (HCT-116 colon) | TGI (UACC-62 melanoma) | TGI (CAKI-1 renal) | TGI (UACC-257 melanoma) | TGI (OVCAR-5 ovarian) | TGI (SK-MEL-28 melanoma) | TGI (SK-MEL-5 melanoma) | TGI (SF-295 CNS) | TGI (M14 melanoma) | TGI (A549 NSCLC) | TGI (PC-3 prostate) | TGI (HS 578T breast) | TGI (NCI-H226 lung) | TGI (HOP-62 NSCLC) | TGI (MDA-MB-435) | TGI (NCI-H460 lung) | TGI (T-47D breast) | TGI (SR leukemia) | TGI (MALME-3M melanoma) | TGI (LOX IMVI melanoma)
48.7 µM: TGI (A498 renal)
